Laboratory results published in PubChem BioAssay AID328 (DTP/NCI, 2004).
Several values for one entry are separate records, joined by “and”; a condition that tells them apart may be missing. Equal values may be shown once. Toxic doses and inconclusive results are not listed.

Experiments:
[1] = tested on: BDF1 mice, P388 leukemia ip; assay: NCI In Vivo Anticancer Drug Screen. Data for tumor model P388 Leukemia (intraperitoneal) in B6D2F1 (BDF1) mice; details: endpoint: mean survival time, higher = longer survival
How it was run: (§1)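 Reported as T/C, where T is the survival measurement in dosed animals and C the same measurement in vehicle controls.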

[2] = tested on: BDF1 mice, P388 leukemia ip, median survival T/C; assay: as above; details: endpoint: median survival time, higher = longer survival
How it was run: as §1

[3] = dose: 100.0 mg/kg/injection, schedule: Q01DX009 (ip), vehicle: saline with Tween-80

## CCOC(CN(Cc1ccc(OCc2ccccc2)c(OC)c1)S(=O)(=O)c1ccc(C)cc1)OCC
[1]; dose: 25.0 mg/kg/injection, schedule: Q01DX009 (ip), vehicle: water
  T/C: 93 % of control
[1]; dose: 50.0 mg/kg/injection, schedule: Q01DX009 (ip), vehicle: water
  T/C: 97 % of control
[1]; dose: 100.0 mg/kg/injection, schedule: Q01DX009 (ip), vehicle: water
  T/C: 93 % of control
[1]; dose: 200.0 mg/kg/injection, schedule: Q01DX009 (ip), vehicle: water
  T/C: 90 % of control

## C/C=C/c1cc2c(c(=O)o1)C(=O)[C@@H](O)[C@H](C)O2
[2]; dose: 11.0 mg/kg/injection, schedule: Q01DX010 (ip), vehicle: other
  T/C: 120 % of control
[2]; dose: 25.0 mg/kg/injection, schedule: Q01DX010 (ip), vehicle: other
  T/C: 154 % of control
[2]; dose: 50.0 mg/kg/injection, schedule: Q01DX010 (ip), vehicle: other
  T/C: 150 % of control
[2]; dose: 100.0 mg/kg/injection, schedule: Q01DX010 (ip), vehicle: other
  T/C: 150 % of control
[1]; dose: 25.0 mg/kg/injection, schedule: Q01DX010 (ip), vehicle: carboxymethylcellulose (CMC)
  T/C: 119 % of control

## CC1(C)C(=O)C(O)=C[C@H]2C1=CC[C@@H]1[C@]2(C)C(=O)C[C@]2(C)[C@@H]([C@@](C)(O)C(=O)CC(O)C(C)(C)O)C(O)C[C@@]12C (stereo partly drawn)
[1]; dose: 18.0 mg/kg/injection, schedule: Q01DX010 (ip), vehicle: carboxymethylcellulose (CMC)
  T/C: 99 % of control

## C=C(C)c1ccccc1S(=O)(=O)c1ccccc1C(C)(C)O
[2]; dose: 100.0 mg/kg/injection, schedule: Q04DX003 (ip), vehicle: saline with Tween-80
  T/C: 105 % of control
[2]; dose: 200.0 mg/kg/injection, schedule: Q04DX003 (ip), vehicle: saline with Tween-80
  T/C: 110 % of control
[2]; dose: 400.0 mg/kg/injection, schedule: Q04DX003 (ip), vehicle: saline with Tween-80
  T/C: 114 % of control

## C[n+]1csc(=S)[nH]1
[2]; dose: 25.0 mg/kg/injection, schedule: Q04DX003 (ip), vehicle: saline
  T/C: 86 % of control
[2]; dose: 50.0 mg/kg/injection, schedule: Q04DX003 (ip), vehicle: saline
  T/C: 95 % of control
[2]; dose: 100.0 mg/kg/injection, schedule: Q04DX003 (ip), vehicle: saline
  T/C: 100 % of control

## COc1cccc(/C=N/NC(=S)NC2CC3CCC2C3)c1O (stereo not drawn)
[2]; dose: 50.0 mg/kg/injection, schedule: Q01DX009 (ip), vehicle: saline with Tween-80
  T/C: 100 % of control
[2]; [3]
  T/C: 95 % of control
[2]; dose: 200.0 mg/kg/injection, schedule: Q01DX009 (ip), vehicle: saline with Tween-80
  T/C: 103 % of control

## CC[n+]1cc(-c2ccc(NC(=O)/C=C\c3ccc(C(=O)Nc4ccc(-c5c[n+](CC)c(N)nc5N)cc4)cc3)cc2)c(N)nc1N
[2]; dose: 33.0 mg/kg/injection, schedule: Q04DX003 (ip), vehicle: saline with Tween-80
  T/C: 195 % of control
[2]; dose: 50.0 mg/kg/injection, schedule: Q04DX003 (ip), vehicle: saline with Tween-80
  T/C: 272 % of control
[2]; dose: 75.0 mg/kg/injection, schedule: Q04DX003 (ip), vehicle: saline with Tween-80
  T/C: 272 % of control

## C[C@H]1/C(=C/C(=O)OCCN(C)C)CC[C@H]2[C@H]1C(=O)C[C@H]1C(C)(C)[C@@H](O)CC[C@]21C
[2]; dose: 4.0 mg/kg/injection, schedule: Q01DX010 (ip), vehicle: saline
  T/C: 100 % of control
[2]; dose: 8.0 mg/kg/injection, schedule: Q01DX010 (ip), vehicle: saline
  T/C: 100 % of control
[2]; dose: 16.0 mg/kg/injection, schedule: Q01DX010 (ip), vehicle: saline
  T/C: 104 % of control
[2]; dose: 32.0 mg/kg/injection, schedule: Q01DX010 (ip), vehicle: saline
  T/C: 95 % of control and 104 % of control

## CCCCOC(=O)C(N)Cc1ccc(OC)c(N(CCCl)CCCl)c1 (stereo not drawn)
[2]; dose: 3.0 mg/kg/injection, schedule: Q04DX003 (ip), vehicle: saline
  T/C: 250 % of control
[2]; dose: 6.0 mg/kg/injection, schedule: Q04DX003 (ip), vehicle: saline
  T/C: 108 % of control

## Cc1ccc(CNc2cccnc2)cc1
[2]; dose: 50.0 mg/kg/injection, schedule: Q01DX009 (ip), vehicle: other
  T/C: 95 % of control
[2]; dose: 100.0 mg/kg/injection, schedule: Q01DX009 (ip), vehicle: other
  T/C: 104 % of control
[2]; [3]
  T/C: 100 % of control
[2]; dose: 200.0 mg/kg/injection, schedule: Q01DX009 (ip), vehicle: other
  T/C: 100 % of control
[2]; dose: 400.0 mg/kg/injection, schedule: Q01DX009 (ip), vehicle: saline with Tween-80
  T/C: 100 % of control
